The source of these data is patent US20100305174A1, “Novel Heterocyclic Derivatives” (ORCHID RESEARCH LABORATORIES LIMITED, priority 2005, published 2010).

Test [1] relates to streptozotocin induced diabetic mice. The test is described as follows: Antidiabetic activity in streptozotocin induced diabetic mice. On the set-up: key to % Reduction Cholesterol / % Reduction Triglycerides / % Reduction Glucose: NR=No Reduction. It is filed as in vivo, Swiss albino mice. Conditions: 50 mg/kg oral, 7 days, plasma, compared to control group; for inhibition in vivo at 50 mg/kg: Mus musculus, 168 h. The protocol:
Swiss albino mice of either sex were used in the study at the age of 10 weeks. Diabetes was induced in animals by injecting streptozotocin by i.p. route at a dose of 200 mg/kg body weight. 48 hours after streptozotocin administration, the animals were kept for fasting for 6 hours and blood was collected and plasma separated and glucose was estimated. Animals showing greater than 200 mg/dl glucose levels were considered as diabetic and these animals were randomly distributed into various groups. The compounds listed in the table 3 were administered at a dose of 50 mg/kg body weight by oral route for 7 days. Later animals were fasted for 6 hours and blood was collected and plasma separated. Biochemical estimations like glucose, cholesterol and triglycerides were carried out using the plasma. The effect of compounds mentioned in the table was expressed in terms of percentage reduction in biochemical values as compared to control group.

Another test relates to IL-6. Kind of test: IL-6 inhibition in LPS-challenged human PBMC. The class given is cell-based. Conditions: for inhibition at 1 µM / inhibition at 10 µM: Homo sapiens, PBMC, LPS 100 ng/mL, 20 hours. On the procedure:
(§1) Human PBMC cells were cultured and incubated with compounds listed in table-4 at 1 and 10 μM concentrations. Cells (1×10^6/mL) were challenged with lipopolysaccharides (LPS) at a concentration of (100 ng/mL) for 20 hours. Cell supernatant was analyzed for the presence of TNF-α, IL-1β and IL-6 cytokines by antibody directed enzyme-linked immunoassay.

The next test relates to TNF-α. Kind of test: TNF-α inhibition in LPS-challenged human PBMC. It is filed as cell-based. To be noted: for inhibition at 1 µM / inhibition at 10 µM: Homo sapiens, PBMC, LPS 100 ng/mL, 20 hours, read-out: % Inhibition TNF alpha. The protocol: as §1
The next test deals with IL-1β. The test is described as follows: IL-1β inhibition in LPS-challenged human PBMC. The class given is cell-based. To be noted: for inhibition at 1 µM / inhibition at 10 µM: Homo sapiens, PBMC, LPS 100 ng/mL, 20 hours, read-out: % Inhibition IL1beta. The protocol: as §1
The target in another test is T1, DPP IV (Homo sapiens, UniProt P27487).
T1 construct: using human plasma as a source of DPP IV; from tissue; host or cells: human plasma
T1 sequence (P27487 39-766 limits assumed): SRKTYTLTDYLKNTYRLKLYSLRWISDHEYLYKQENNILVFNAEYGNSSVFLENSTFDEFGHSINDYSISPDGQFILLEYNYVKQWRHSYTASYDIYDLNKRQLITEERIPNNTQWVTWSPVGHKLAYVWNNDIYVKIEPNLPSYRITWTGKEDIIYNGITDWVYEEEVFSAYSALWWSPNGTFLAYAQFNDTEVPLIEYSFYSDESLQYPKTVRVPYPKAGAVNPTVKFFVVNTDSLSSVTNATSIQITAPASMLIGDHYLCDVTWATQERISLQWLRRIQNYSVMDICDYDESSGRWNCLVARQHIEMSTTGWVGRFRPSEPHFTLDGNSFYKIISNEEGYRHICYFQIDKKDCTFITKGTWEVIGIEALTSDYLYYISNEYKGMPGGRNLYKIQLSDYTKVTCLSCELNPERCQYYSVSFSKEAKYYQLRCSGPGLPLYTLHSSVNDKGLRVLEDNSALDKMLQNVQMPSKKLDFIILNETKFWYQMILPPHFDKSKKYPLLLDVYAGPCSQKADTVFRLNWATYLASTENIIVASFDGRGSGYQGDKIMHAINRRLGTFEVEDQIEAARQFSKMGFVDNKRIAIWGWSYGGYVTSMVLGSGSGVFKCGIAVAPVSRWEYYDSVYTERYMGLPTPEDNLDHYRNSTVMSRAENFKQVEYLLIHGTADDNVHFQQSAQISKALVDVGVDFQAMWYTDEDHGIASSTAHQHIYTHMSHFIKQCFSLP
Kind of test: DPP IV assay (human plasma as source, H-gly-pro AMC substrate). Conditions: compared to vehicle control. The class given is biochemical. The protocol: DPP IV assay is carried by using human plasma as a source of DPP IV. The compounds were incubated at a concentration of 1 and 10 μM in assay buffer containing DPP IV enzyme. The compounds were incubated for 1 hr and then the substrate H-gly-pro AMC was added and further incubated for 20 min and then the reaction was stopped on addition of 25% glacial acetic acid. The plates were read in a spectrofluorimeter to get RFU on setting excitation wavelength of 360 nm and emission wavelength of 460 nm. Percentage inhibition is calculated as compared to vehicle control.

The mark [2] stands for this setting: read-out: % Reduction Triglycerides.
Setting [3] is: at tested concentrations, statement in words.

Structures are written as SMILES. Read-outs that look alike come from different tables or passages of the source.

`CCN1C(=O)OCC1Cc1ccc(Oc2ccc(/C=C3/SC(=O)NC3=O)cc2)cc1` (centres unmarked) [Example 3, 5-(4-{4-[(3-ethyl-2-oxo-1,3-oxazolidin-4-yl)methyl]phenoxy}benzylidene)-1,3-thiazolidine-2,4-dione]: in test [1], the “% Reduction Cholesterol” value is reported as “NR” and the “% Reduction Glucose” value was “NR”. For the same molecule, in test [1] (setting [2]), the inhibition in vivo at 50 mg/kg came to 3.8%.

For orientation: inhibition means the drop in the measured response relative to a control, in per cent. On to `CCN1C(=O)OCC1Cc1ccc(Oc2ccc(CC3C(=O)Nc4ccccc43)cc2OC)cc1` (centres unmarked) [Example 69], for which the results for the inhibition at 1 µM with IL-6, in the test on TNF-α and in the test with IL-1β were 2.98%, 35.2% and 33.3%, respectively. Also, the inhibition at 10 µM in the test on IL-6 was found to be 12.4%; in the test on TNF-α, 50.6%; in the test with IL-1β, 39.7%. In the test with IL-6 (setting [3]), the “inhibition of IL-6 production” value was “can inhibit the production”. Besides, the “inhibition of TNF-α production” value in the test on TNF-α (setting [3]) is reported as “can inhibit the production”. Moreover, in the test on IL-1β (setting [3]), the “inhibition of IL-1β production” value was “can inhibit the production”.

Regarding `CN1C(=O)OCC1Cc1ccc(Oc2ccc(CC3SC(=S)N(CC(=O)O)C3=O)cc2C(F)(F)F)cc1` (centres unmarked) [Example 86], the “% Reduction Cholesterol” value in test [1] is reported as “NR”. Further, the inhibition in vivo at 50 mg/kg is 48.8% in test [1] (read-out: % Reduction Glucose) and 15.5% in test [1] (setting [2]).

For `CCN1C(=O)OCC1Cc1ccc(Oc2ccc(CC3C(=O)Nc4ccccc43)cc2C(F)(F)F)cc1` (centres unmarked) [Example 65], in the test on TNF-α, the inhibition at 1 µM is 4.6% and the inhibition at 10 µM is 1.67%.

`CN1C(=O)OCC1Cc1ccc(Oc2ccc(/C=C3\C(=O)Nc4ccccc43)cc2)cc1` (centres unmarked) [Example 4]: in the test with TNF-α, the inhibition at 1 µM was 8.77% and the inhibition at 10 µM was found to be 2.85%. Further, in the test on IL-1β, the inhibition at 1 µM was 1.55% and the inhibition at 10 µM came out at 10.7%.

Take `CN1C(=O)OCC1Cc1ccc(Oc2ccc(CC3SC(=O)NC3=O)cc2C(F)(F)F)cc1` (centres unmarked) [Example 71, 4-{4-[(3-methyl-2-oxo-1,3-oxazolidin-4-yl)methyl]phenoxy)-3-(trifluoromethylbenzyl]-1,3-thiazolidine-2,4-dione]: in test [1], the “% Reduction Cholesterol” value is reported as “NR” and the “% Reduction Triglycerides” value is given as “NR”. The inhibition in vivo at 50 mg/kg in test [1] (read-out: % Reduction Glucose) came to 49.9%.

Take `CCN1C(=O)OCC1Cc1ccc(Oc2ccc(/C=C3\C(=O)Nc4ccccc43)cc2C(F)(F)F)cc1` (centres unmarked) [Example 15]: the inhibition at 1 µM was found to be 1.16% with IL-6, 7.07% against DPP IV, 24.5% in the test on TNF-α and 1.78% in the test on IL-1β. For the same molecule, the inhibition at 10 µM at DPP IV was 9.86%; in the test on TNF-α, 15.9%.

Consider `CCN1C(=O)OCC1Cc1ccc(Oc2ccc(/C=C3\C(=O)Nc4ccccc43)cc2Cl)cc1` (centres unmarked) [Example 10], for which the results for the inhibition at 1 µM with IL-6 and in the test on TNF-α were 15.5% and 20.2%, respectively. Besides, the inhibition at 10 µM with IL-6 turned out to be 7.18%; in the test with TNF-α, 35%.

Turning to `CN1C(=O)OCC1Cc1ccc(Oc2ccc(/C=C3/SC(=S)N(CC(=O)O)C3=O)cc2Cl)cc1` (centres unmarked) [Example 41, [4-oxo-5-(3-chloro-4-{4-[(3-methyl-2-oxo-1,3-oxazolidin-4-yl)methyl]phenoxy}benzylidene)-2-thioxo-1,3-thiazolidin-3-yl]acetic acid], in test [1], the “% Reduction Cholesterol” value is on record as “NR” and the “% Reduction Triglycerides” value was “NR”. Also, in test [1] (read-out: % Reduction Glucose), the inhibition in vivo at 50 mg/kg is 66.5%.

Turning to `CN1C(=O)OCC1Cc1ccc(Oc2ccc(/C=C3\C(=O)Nc4ccccc43)c(Cl)c2)cc1` (centres unmarked) [Example 16], the inhibition at 1 µM in the test with TNF-α worked out at 6.6%.

Regarding `CN1C(=O)OCC1Cc1ccc(Oc2ccc(/C=C3/C(=O)Nc4ccccc43)cc2F)cc1` (centres unmarked) [Example 7], on DPP IV, the inhibition at 1 µM came to 3.55% and the inhibition at 10 µM worked out at 7.75%. Besides, in the test with TNF-α, the inhibition at 1 µM turned out to be 0.93% and the inhibition at 10 µM stood at 6.43%.

`CN1C(=O)OCC1Cc1ccc(Oc2ccc(CC3C(=O)Nc4ccccc43)cc2)cc1` (centres unmarked) [Example 64]: in the test on TNF-α, the inhibition at 1 µM turned out to be 9.43% and the inhibition at 10 µM is 15.6%. Besides, in the test with IL-1β, the inhibition at 1 µM was found to be 8.77% and the inhibition at 10 µM is 25.9%.

As to `CN1C(=O)OCC1Cc1ccc(Oc2ccc(/C=C3/SC(=S)NC3=O)cc2Cl)cc1` (centres unmarked) [Example 40, 4-(4-{2-chloro-4-[(4-oxo-2-thioxo-1,3-thiazolidin-5-ylidene)methyl]phenoxy}benzyl)-3-methyl-1,3-oxazolidin-2-one], the “% Reduction Cholesterol” value in test [1] is on record as “NR”. Also, the inhibition in vivo at 50 mg/kg in test [1] (read-out: % Reduction Glucose) was determined as 34.2%; in test [1] (setting [2]), 17.8%.

In the case of `CN1C(=O)OCC1Cc1ccc(Oc2ccc(/C=C3/SC(=S)NC3=O)cc2)cc1` (centres unmarked) [Example 34, 3-methyl-4-(4-{4-[(4-oxo-2-thioxo-1,3-thiazolidin-5-ylidene)methyl]phenoxy}benzyl)-1,3-oxazolidin-2-one], on DPP IV, the inhibition at 1 µM was determined as 9.52% and the inhibition at 10 µM is -0.7%. Also, the “% Reduction Cholesterol” value in test [1] is listed as “NR”. The inhibition in vivo at 50 mg/kg in test [1] (read-out: % Reduction Glucose) amounted to 50.9%. In addition, the inhibition in vivo at 50 mg/kg in test [1] (setting [2]) came to 73.4%.

Take `CCN1C(=O)OCC1Cc1ccc(Oc2ccc(CC3SC(=O)NC3=O)cc2)cc1` (centres unmarked) [Example 62, 5-(4-{4-[(3-ethyl-2-oxo-1,3-oxazolidin-4-yl)methyl]phenoxy}benzyl)-1,3-thiazolidine-2,4-dione]: the “% Reduction Cholesterol” value in test [1] is “NR”. Besides, the inhibition in vivo at 50 mg/kg came to 36.2% in test [1] (read-out: % Reduction Glucose) and 24.7% in test [1] (setting [2]).

Consider `CN1C(=O)OCC1Cc1ccc(Oc2ccc(/C=C3/SC(=S)NC3=O)cc2C(F)(F)F)cc1` (centres unmarked) [Example 55], for which, at DPP IV, the inhibition at 1 µM stood at 1.99% and the inhibition at 10 µM came to 9.92%.

On to `CCN1C(=O)OCC1Cc1ccc(Oc2ccc(CC3C(=O)Nc4ccccc43)cc2F)cc1` (centres unmarked) [Example 66], for which, in the test on IL-6, the inhibition at 1 µM worked out at 3.58%.

Regarding `CCN1C(=O)OCC1Cc1ccc(Oc2ccc(/C=C3\C(=O)Nc4ccccc43)cc2F)cc1` (centres unmarked) [Example 12], the figures for the inhibition at 1 µM with IL-6 and in the test on TNF-α were 2.67% and 13.6%, respectively. Besides, the inhibition at 10 µM in the test with IL-6 was 1.65%; with TNF-α, 28.1%.

As for `O=C1NC(Cc2ccc(Oc3ccc(/C=C4/SC(=O)NC4=O)cc3F)cc2)CO1` (centres unmarked) [Example 31, 5-(3-fluoro-4-{4-[(2-oxo-1,3-oxazolidin-4-yl)methyl]phenoxy}benzylidene)-1,3-thiazolidine-2,4-dione], on DPP IV, the inhibition at 1 µM came to 4.77% and the inhibition at 10 µM was 7.25%.

Turning to `CCN1C(=O)OCC1Cc1ccc(Oc2ccc(/C=C3\C(=O)Nc4ccccc43)cc2)cc1` (centres unmarked) [Example 5], in the test with TNF-α, the inhibition at 1 µM stood at 1.72% and the inhibition at 10 µM was 9.77%.

`CCN1C(=O)OCC1Cc1ccc(Oc2ccc(/C=C3/SC(=S)NC3=O)cc2C(F)(F)F)cc1` (centres unmarked) [Example 59]: at DPP IV, the inhibition at 1 µM is -1.26% and the inhibition at 10 µM was found to be 12.4%.

With `CCN1C(=O)OCC1Cc1ccc(Oc2ccc(/C=C3/SC(=S)N(CC(=O)O)C3=O)cc2)cc1` (centres unmarked) [Example 37], in test [1], the “% Reduction Cholesterol” value was “NR” and the “% Reduction Triglycerides” value was “NR”. The inhibition in vivo at 50 mg/kg in test [1] (read-out: % Reduction Glucose) was determined as 22.5%.

Regarding `COc1cc(CC2C(=O)Nc3ccccc32)ccc1Oc1ccc(CC2COC(=O)N2C)cc1` (centres unmarked) [Example 67], the inhibition at 10 µM is 2.12% in the test with IL-6, 34% with TNF-α and 20.9% in the test on IL-1β. Further, the inhibition at 1 µM with TNF-α was 20.9%; in the test on IL-1β it was 12.1%.

Turning to `CN1C(=O)OCC1Cc1ccc(Oc2ccc(CC3C(=O)Nc4ccccc43)cc2C(F)(F)F)cc1` (centres unmarked) [Example 75], on DPP IV, the inhibition at 1 µM amounted to 2.44% and the inhibition at 10 µM amounted to 7.64%.
